Test results published in PubChem BioAssay (NCI).
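Protocol summary: plate cells (96-well), add compound at 5 concentrations, incubate 48 h, interpolate endpoints linearly. GI50 = concentration required for 50% inhibition of growth. At the TGI there is no net growth.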

Assays:
Experiment in all cases: inhibition of tumour cell growth, NCI panel, 48 h
NCI-H522 lung = test system: NCI-H522 lung
U251 CNS = test system: U251 CNS
SF-539 CNS = test system: SF-539 CNS
NCI/ADR-RES ovarian = test system: NCI/ADR-RES ovarian
HOP-92 NSCLC = test system: HOP-92 NSCLC
MDA-MB-231 breast = test system: MDA-MB-231 breast
HS 578T breast = test system: HS 578T breast
786-0 renal = test system: 786-0 renal
UACC-62 melanoma = test system: UACC-62 melanoma
LOX IMVI melanoma = test system: LOX IMVI melanoma
DU-145 prostate = test system: DU-145 prostate

SMILES	TGI (NCI-H522 lung)	TGI (U251 CNS)	TGI (SF-539 CNS)	TGI (NCI/ADR-RES ovarian)	TGI (HOP-92 NSCLC)	TGI (MDA-MB-231 breast)	TGI (HS 578T breast)	TGI (786-0 renal)	TGI (UACC-62 melanoma)	TGI (LOX IMVI melanoma)	TGI (DU-145 prostate)	GI50 (NCI-H522 lung)	GI50 (U251 CNS)	GI50 (SF-539 CNS)	GI50 (HOP-92 NSCLC)	GI50 (MDA-MB-231 breast)	GI50 (HS 578T breast)	GI50 (UACC-62 melanoma)	GI50 (DU-145 prostate)
CN1CCC(C(O)(c2ccccc2)c2ccc(Br)cc2)CC1 (stereo not given)	30.4 µM	43.1 µM	32.2 µM	> 100 µM	70.4 µM	48.8 µM	> 100 µM	27.5 µM	30.1 µM	32.9 µM	> 100 µM								
CCc1n[nH]c(=O)n1/N=C(\C)c1ccccc1	> 100 µM	> 100 µM	> 100 µM	> 100 µM		> 100 µM	> 100 µM	> 100 µM	> 100 µM	> 100 µM	> 100 µM								
CN(CCc1ccccn1)c1ccc2c(c1)C(=O)c1ccccc1-2	> 100 µM	> 100 µM		> 100 µM	> 100 µM	> 100 µM	> 100 µM	> 100 µM	> 100 µM	> 100 µM	> 100 µM								
CC(=O)Nc1cccc(N2C(=O)/C(=C\c3cccc(Oc4ccccc4)c3)SC2c2ccccc2)c1 (stereo not given)	> 100 µM	> 100 µM	> 100 µM	> 100 µM	> 100 µM	> 100 µM	> 100 µM	> 100 µM	> 100 µM	> 100 µM	> 100 µM								
C=C1C(O)C2(O)OCC34C(CC5C(C)=CC(=O)C(O)C5(C)C23)OC(=O)C(OC(=O)C/C=C/CCCCCCCC)C14 (stereo not given)	0.0202 µM	0.0227 µM	0.0372 µM	2.55 µM	0.0229 µM				0.0292 µM	2 µM									
CCOc1nc2c(N3CCCC3)nc(N3CCNCC3)nc2nc1NCc1ccccc1	2.2 µM	2.39 µM	2.85 µM	8.6 µM	2.5 µM	2.84 µM	3.53 µM	2.68 µM	3.25 µM	2.97 µM	6.84 µM								
O=C(O)c1cc2ccccc2c(N=Nc2ccc(S(=O)(=O)Nc3ncccn3)cc2)c1O	> 100 µM	> 100 µM	> 100 µM	> 100 µM	> 100 µM	> 100 µM	> 100 µM	> 100 µM	> 100 µM										
O=C(Cc1nc2ccccc2[nH]c1=O)c1c[nH]c2ccccc12	50 µM	33 µM	35.2 µM	28.5 µM	> 100 µM	54.2 µM	> 100 µM	29.3 µM	29 µM	> 100 µM	> 100 µM								
CC(Oc1ccccc1Cl)C(=O)NN1C(=O)CC(=O)N(c2ccc(Cl)cc2)C1=S (stereo not given)	> 100 µM	> 100 µM	> 100 µM	> 100 µM	63.2 µM	> 100 µM	> 100 µM	> 100 µM	> 100 µM	> 100 µM	> 100 µM								
COc1cccc(C23CCN(C)C(CC(O)C2)C3)c1OC (stereo not given)	> 100 µM	> 100 µM	> 100 µM	> 100 µM	> 100 µM	> 100 µM	> 100 µM	> 100 µM	> 100 µM	> 100 µM	> 100 µM								
C/C(C=O)=C/[C@@]1(C)O[C@@H](C)[C@@](C)(O)[C@@H]1O	35.5 µM	> 100 µM	> 100 µM	56.1 µM	> 100 µM	> 100 µM	> 100 µM	34.6 µM	> 100 µM	> 100 µM	> 100 µM								
CN(C)c1ccc(-c2ccc(-c3ccc(C(=N)N)cn3)o2)cc1	3.44 µM	2.91 µM	2.9 µM		2.87 µM	3.77 µM	4.07 µM		3.34 µM		3.18 µM	1.84 µM	1.53 µM	1.54 µM	1.27 µM	1.8 µM	1.9 µM	1.76 µM	1.72 µM
C#C[C@]1(O)CC[C@H]2[C@@H]3CCc4cc(O)ccc4[C@H]3CC[C@@]21C	43.5 µM		40.4 µM		95 µM			> 100 µM	> 100 µM	> 100 µM									
COc1ccc2nc3ccc(OC)cc3c(SCCCl)c2c1	> 100 µM	> 100 µM	> 50.5 µM	> 58.7 µM	> 42.2 µM	99.3 µM	> 100 µM	30.1 µM	> 77.6 µM	21.3 µM	> 65 µM								
Cc1c(-c2ccccc2)[nH]c2cn[nH]c(=O)c12	> 100 µM	> 100 µM	> 100 µM	> 100 µM	> 100 µM	> 100 µM	> 100 µM	> 100 µM	> 100 µM	> 100 µM	> 100 µM								
O=[N+]([O-])c1ccc(N=Nc2c(O)[nH]c3ccccc23)c([N+](=O)[O-])c1	> 100 µM	47.8 µM	10.2 µM	59.9 µM	12.5 µM	29.9 µM	> 100 µM	28.8 µM	> 100 µM	20.7 µM	30.1 µM								
Cc1ccc(-c2cc(-c3ccc(Cl)cc3)nc(/N=C3\C(=O)N(CN(C)C)c4ccccc43)n2)cc1	69.4 µM	> 100 µM	> 100 µM	> 100 µM	> 100 µM	> 100 µM	> 100 µM	> 100 µM	> 100 µM	58.5 µM	97.8 µM								
O=C1c2c(Br)sc(Br)c2[C@@H](O)[C@H]1O	3.54 µM	20.8 µM	29.3 µM	56.5 µM	35.3 µM	31.4 µM	63.5 µM	28.5 µM	30.4 µM	34.1 µM	30.7 µM								
